These results are taken from ChEMBL document CHEMBL1130751, “Synthesis and 5 alpha-reductase inhibitory activity of 8-substituted benzo[f]quinolinones derived from palladium mediated coupling reactions” (Bioorg Med Chem Lett, 1998).

The target in assay [1] is T1, 3-oxo-5-alpha-steroid 4-dehydrogenase 2 (Homo sapiens, UniProt P31213).
T1 sequence (P31213 whole entry): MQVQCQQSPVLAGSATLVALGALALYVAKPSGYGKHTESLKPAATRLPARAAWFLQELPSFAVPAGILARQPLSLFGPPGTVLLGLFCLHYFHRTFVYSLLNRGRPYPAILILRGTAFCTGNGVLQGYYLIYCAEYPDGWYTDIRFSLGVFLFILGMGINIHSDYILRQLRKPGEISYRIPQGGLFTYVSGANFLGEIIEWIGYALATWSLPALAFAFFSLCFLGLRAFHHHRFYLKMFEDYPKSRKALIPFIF
The assay can be described thus: Inhibitory activity against Steroid 5-alpha-reductase type 2 as [3H]T to [3H]-DHT conversion human prostate nuclear membrane. In kind it is tissue-based, Prostate gland.

Assay [2] addresses T2, 3-oxo-5-alpha-steroid 4-dehydrogenase 1 (Homo sapiens, UniProt P18405).
T2 sequence (P18405 whole entry): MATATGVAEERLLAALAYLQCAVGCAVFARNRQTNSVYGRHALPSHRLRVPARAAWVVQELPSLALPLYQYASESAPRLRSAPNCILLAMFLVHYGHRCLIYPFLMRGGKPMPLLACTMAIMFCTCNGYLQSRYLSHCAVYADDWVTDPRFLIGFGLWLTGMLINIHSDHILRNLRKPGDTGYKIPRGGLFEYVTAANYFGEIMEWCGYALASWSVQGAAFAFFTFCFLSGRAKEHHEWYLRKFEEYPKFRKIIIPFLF
The assay can be described thus: Inhibitory activity against Steroid 5-alpha-reductase type I enzyme based on the conversion of [3H]-T to [3H]DHT in nuclear membrane preparations from human scalp. In kind it is cell membranes.

In assay [3] the target is T2, 3-oxo-5-alpha-steroid 4-dehydrogenase 1. The assay can be described thus: Inhibitory activity against Steroid 5-alpha-reductase type 1 enzyme based on the conversion of [3H]T to [3H]-DHT in nuclear membrane preparations from human scalp. In kind it is cell membranes.

With `CN1C(=O)CC[C@]2(C)c3ccc(C#Cc4ccccc4)cc3CC[C@@H]12`, the values for the IC50 in assay [1] and in assay [2] were 52 nM and 21 nM, respectively.

As to `CN1C(=O)CC[C@]2(C)c3ccc(CC(=O)O)cc3CC[C@@H]12`, in assay [1], half-maximal inhibition (IC50) required 870 nM.

In the case of `CN1C(=O)CC[C@]2(C)c3ccc(CC(N)=O)cc3CC[C@@H]12`, the IC50 in assay [3] and in assay [1] was greater than 10000 nM throughout.

As to `CN1C(=O)CC[C@]2(C)c3ccc(/C=C\c4ccccc4)cc3CC[C@@H]12`, the figures for the IC50 in assay [1] and in assay [2] were 1400 nM and 6 nM, respectively.

Take `CCN(CC)C(=O)Cc1ccc2c(c1)CC[C@H]1N(C)C(=O)CC[C@]21C`: the IC50 in assay [3] and in assay [1] was greater than 10000 nM throughout.

Take `CN1C(=O)CC[C@]2(C)c3ccc(/C=C/c4cnc5ccccc5c4)cc3CC[C@@H]12`: the values for the IC50 in assay [3] and in assay [1] were 3.4 nM and 320 nM, respectively.

Take `CN1C(=O)CC[C@]2(C)c3ccc(-c4ccco4)cc3CC[C@@H]12`: the IC50 in assay [3] is 59 nM; in assay [1] it was greater than 10000 nM.

In the case of `CN1C(=O)CC[C@]2(C)c3ccc(/C=C/c4ccccc4)cc3CC[C@@H]12`, the IC50 in assay [1] stood at 180 nM; in assay [2], 23 nM.

Regarding `CN1C(=O)CC[C@]2(C)c3ccc(CC(=O)Nc4ccccc4)cc3CC[C@@H]12`, the figures for the IC50 in assay [3] and in assay [1] were greater than 10000 nM and 520 nM, respectively.

For `CN1C(=O)CC[C@]2(C)c3ccc(/C=C/c4cncc5ccccc45)cc3CC[C@@H]12`, the IC50 in assay [3] amounted to 63 nM; in assay [1], 1340 nM.

As for `CN1C(=O)CC[C@]2(C)c3ccc(/C=C/c4ccc5ccccc5n4)cc3CC[C@@H]12`, the IC50 in assay [3] is 32 nM; in assay [1], 550 nM.

As to `CN1C(=O)CC[C@]2(C)c3ccc(-c4cccs4)cc3CC[C@@H]12`, the IC50 in assay [3] and in assay [1] was greater than 10000 nM each time.

`CN1C(=O)CC[C@]2(C)c3ccc(CC(=O)NC(C)(C)C)cc3CC[C@@H]12`: the IC50 in assay [3] and in assay [1] was greater than 10000 nM in each case.

One may read the IC50 as the midpoint of a concentration-inhibition curve. A lower IC50 goes with inhibition by little substance.
